This note sets out measurements from article PMC10946398 (Journal of Medicinal Chemistry, 2024).

Values joined by “and” are separate entries in the source; they are usually repeats but may differ in a detail not shown here. Equal values may be shown once.

The nature of the data set: parallel artificial membrane permeability assay. Format: in vitro ADME. To be noted: 100 μM, phosphate buffer pH 6.4, 17 h, 37 °C, 150 rpm, triplicates.
As to `CC(C)C[C@@H]1NC(=O)[C@H](C)N(C)C(=O)[C@H](Cc2ccccc2)NCc2ccc([nH]2)CNC1=O` [14d, (5S,8S,11S)-11-Benzyl-5-isobutyl-8,9-dimethyl-1^1H-3,6,9,12-tetraaza-1(2,5)-pyrrolacyclotridecaphane-4,7,10-trione], the “PAMPA −LogPe” value is on record as 5.01.

With `CC(C)C[C@@H]1NC(=O)[C@H](C)NC(=O)[C@H](Cc2ccccc2)NCc2ccc([nH]2)CNC1=O` [14a, (5S,8S,11S)-11-Benzyl-5-isobutyl-8-methyl-1^1H-3,6,9,12-tetraaza-1(2,5)-pyrrolacyclotridecaphane-4,7,10-trione, 1H-Benzo[d][1,2,3]triazol-1-ol], the “PAMPA −LogPe” value is 7.72.

Regarding `CC(C)C[C@@H]1NC(=O)CN(C)C(=O)[C@H](Cc2ccccc2)NCC2=CC=C(CNC1=O)O2` [18b, (5S,11S)-11-Benzyl-5-isobutyl-9-methyl-3,6,9,12-tetraaza-1(2,5)-furanacyclotridecaphane-4,7,10-trione], the “PAMPA −LogPe” value is 5.88 and 5.88 ± 0.04.

With `CC(C)C[C@@H]1NC(=O)[C@H](C)N(C)C(=O)[C@H](Cc2ccccc2)NCc2cc(cn2C)CNC1=O` [17d, (5S,8S,11S,Z)-11-Benzyl-5-isobutyl-1^1,8,9-trimethyl-1^1H-3,6,9,12-tetraaza-1(2,4)-pyrrolacyclotridecaphane-4,7,10-trione], the “PAMPA −LogPe” value amounted to 6.61 ± 0.07.

Turning to `CC(C)C[C@@H]1NC(=O)[C@H](C)N(C)C(=O)[C@H](Cc2ccccc2)NCc2ccc(n2C)CNC1=O` [15d, (5S,8S,11S)-11-Benzyl-5-isobutyl-1^1,8,9-trimethyl-1^1H-3,6,9,12-tetraaza-1(2,5)-pyrrolacyclotridecaphane-4,7,10-trione], the “PAMPA −LogPe” value was 6.30.

Regarding `CC(C)C[C@@H]1NC(=O)[C@H](C)NC(=O)[C@H](Cc2ccccc2)NCC2=CC=C(CN(C)C1=O)O2` [19a, (5S,8S,11S)-11-Benzyl-5-isobutyl-3,8-dimethyl-3,6,9,12-tetraaza-1(2,5)-furanacyclotridecaphane-4,7,10-trione], the “PAMPA −LogPe” value was 5.71 and 5.71 ± 0.03.

Regarding `CC(C)C[C@@H]1NC(=O)[C@H](C)NC(=O)[C@H](Cc2ccccc2)N(C)Cc2ccc([nH]2)CNC1=O` [14e, (5S,8S,11S)-11-Benzyl-5-isobutyl-8,12-dimethyl-1^1H-3,6,9,12-tetraaza-1(2,5)-pyrrolacyclotridecaphane-4,7,10-trione, 1H-Benzo[d][1,2,3]triazol-1-ol], the “PAMPA −LogPe” value is on record as 5.11.

As to `CC(C)C[C@@H]1NC(=O)CN(C)C(=O)[C@H](Cc2ccccc2)NCc2ccc(n2C)CNC1=O` [15b, (5S,11S)-11-Benzyl-5-isobutyl-1^1,9-dimethyl-1^1H-3,6,9,12-tetraaza-1(2,5)-pyrrolacyclotridecaphane-4,7,10-trione], the “PAMPA −LogPe” value is recorded as 5.93.

Consider `CC(C)C[C@H]1C(=O)NCc2ccc([nH]2)CN[C@@H](Cc2ccccc2)C(=O)N[C@@H](C)C(=O)N1C` [14c, (5S,8S,11S)-11-Benzyl-5-isobutyl-6,8-dimethyl-1^1H-3,6,9,12-tetraaza-1(2,5)-pyrrolacyclotridecaphane-4,7,10-trione, 1H-Benzo[d][1,2,3]triazol-1-ol], for which the “PAMPA −LogPe” value was 5.12.

With `CC(C)C[C@@H]1NC(=O)[C@H](C)N(C)C(=O)[C@H](Cc2ccccc2)NCc2cc(c[nH]2)CNC1=O` [16d, (5S,8S,11S,Z)-11-Benzyl-5-isobutyl-8,9-dimethyl-1^1H-3,6,9,12-tetraaza-1(2,4)-pyrrolacyclotridecaphane-4,7,10-trione], the “PAMPA −LogPe” value is recorded as 7.53.

`CC(C)C[C@@H]1NC(=O)CN(C)C(=O)[C@H](Cc2ccccc2)NCc2cc(c[nH]2)CNC1=O` [16b, (5S,11S,Z)-11-Benzyl-5-isobutyl-9-dimethyl-1^1H-3,6,9,12-tetraaza-1(2,4)-pyrrolacyclotridecaphane-4,7,10-trione]: the “PAMPA −LogPe” value worked out at 6.76.

Regarding `CC(C)C[C@@H]1NC(=O)CN(C)C(=O)[C@H](Cc2ccccc2)NCc2ccc([nH]2)CNC1=O` [14b, (5S,11S)-11-Benzyl-5-isobutyl-9-methyl-1^1H-3,6,9,12-tetraaza-1(2,5)-pyrrolacyclotridecaphane-4,7,10-trione], the “PAMPA −LogPe” value was 5.89 and 5.89 ± 0.08.
